Experiments:
[1] = target: T1, human Cereblon WT GST-tagged protein (Homo sapiens, UniProt Q96SW2); assay: CRBN-binding affinity, HTRF (CEREBLON BINDING kit); settings: for inhibition at 0.5 µM: read-out: Inhibition Rate at 0.5 µM (%); for inhibition at 2 µM: read-out: Inhibition Rate at 2 µM (%); for IC50: CRBN binding, HTRF, 3 hours at room temperature, read-out: HTRF IC50
T1 construct: purchased CISBIO 64BDCRBNPEH

[2] = target: T2, IKZF2 (Homo sapiens, UniProt Q96SW2+Q9UKS7); assay: Western blot, degradation of substrate protein in hPBMCs; assay type: cell-based
T2 construct: effects of the compounds of the present disclosure on the expression of target proteins in cells; endogenous in cells; host or cells: human PBMCs (Milecell Biotechnologies)

[3] = target: T3, CK1α (Homo sapiens, UniProt P48729+Q96SW2); assay: as above; assay type: cell-based
T3 construct: effects of the compounds of the present disclosure on the expression of target proteins in cells; endogenous in cells; host or cells: human PBMCs (Milecell Biotechnologies)

[4] = target: T4, IKZF1 (Homo sapiens, UniProt Q13422+Q96SW2); assay: as above; assay type: cell-based
T4 construct: effects of the compounds of the present disclosure on the expression of target proteins in cells; endogenous in cells; host or cells: human PBMCs (Milecell Biotechnologies)

[5] = target: T5, WEE1 (Homo sapiens, UniProt P30291+Q96SW2); assay: as above; assay type: cell-based
T5 construct: effects of the compounds of the present disclosure on the expression of target proteins in cells; endogenous in cells; host or cells: human PBMCs (Milecell Biotechnologies)

[6] = target: T6, IKZF3 (Homo sapiens, UniProt Q96SW2+Q9UKT9); assay: as above; assay type: cell-based
T6 construct: effects of the compounds of the present disclosure on the expression of target proteins in cells; endogenous in cells; host or cells: human PBMCs (Milecell Biotechnologies)

[7] = tested on: Human multiple myeloma cell (MM.1S); assay: Tumor cell proliferation inhibition (CellTiter-Meiluncell luminescent cell viability assay); settings: for inhibition at 0.01 µM / inhibition at 0.5 µM / IC50: Homo sapiens, MM1.S, 96 h; for inhibition at 0.01 µM: read-out: Inhibition Rate at 10 nM (%); for inhibition at 0.5 µM: read-out: Inhibition Rate at 500 nM (%); for IC50: read-out: Inhibitory activity (IC50, nM) on tumor cell proliferation, MM.1S
[8] = tested on: GSPT1; assay: Western blot, degradation of substrate protein in hPBMCs; assay type: cell-based, Human
[9] = 24 hours treatment, compounds at 50 nM and 500 nM (concentration behind the class not stated)
[10] = Western blot, 24 hours of compound treatment, compounds tested at 50 nM and 500 nM (concentration for the table not stated)

T6 sequence (Q9UKT9 whole entry): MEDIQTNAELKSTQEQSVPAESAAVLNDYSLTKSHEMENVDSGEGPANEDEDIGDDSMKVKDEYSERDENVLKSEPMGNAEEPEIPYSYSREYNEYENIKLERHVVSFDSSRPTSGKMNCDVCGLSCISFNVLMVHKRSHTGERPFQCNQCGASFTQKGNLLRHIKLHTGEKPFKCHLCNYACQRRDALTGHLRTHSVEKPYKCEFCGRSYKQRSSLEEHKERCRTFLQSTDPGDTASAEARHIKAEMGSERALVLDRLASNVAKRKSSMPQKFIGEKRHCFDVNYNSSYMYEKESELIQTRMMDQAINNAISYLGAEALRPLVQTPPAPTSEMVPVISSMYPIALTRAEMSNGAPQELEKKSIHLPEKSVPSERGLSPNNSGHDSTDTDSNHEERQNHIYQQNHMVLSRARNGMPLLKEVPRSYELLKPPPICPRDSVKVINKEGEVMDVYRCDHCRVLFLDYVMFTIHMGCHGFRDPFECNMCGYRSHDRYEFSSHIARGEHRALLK
T6 sequence (Q96SW2 whole entry): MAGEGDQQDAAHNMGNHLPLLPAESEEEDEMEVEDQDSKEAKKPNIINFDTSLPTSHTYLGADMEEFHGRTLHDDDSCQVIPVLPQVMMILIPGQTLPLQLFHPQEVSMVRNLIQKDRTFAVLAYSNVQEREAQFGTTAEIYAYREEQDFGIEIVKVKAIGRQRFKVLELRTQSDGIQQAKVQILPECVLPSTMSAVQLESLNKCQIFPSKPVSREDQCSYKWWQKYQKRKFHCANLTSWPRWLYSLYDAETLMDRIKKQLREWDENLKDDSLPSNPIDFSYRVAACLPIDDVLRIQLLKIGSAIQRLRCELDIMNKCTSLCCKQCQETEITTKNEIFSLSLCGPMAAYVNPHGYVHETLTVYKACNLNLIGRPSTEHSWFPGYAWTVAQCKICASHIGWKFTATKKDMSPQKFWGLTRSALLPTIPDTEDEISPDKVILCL
T6 sequence (Q16531 whole entry partner): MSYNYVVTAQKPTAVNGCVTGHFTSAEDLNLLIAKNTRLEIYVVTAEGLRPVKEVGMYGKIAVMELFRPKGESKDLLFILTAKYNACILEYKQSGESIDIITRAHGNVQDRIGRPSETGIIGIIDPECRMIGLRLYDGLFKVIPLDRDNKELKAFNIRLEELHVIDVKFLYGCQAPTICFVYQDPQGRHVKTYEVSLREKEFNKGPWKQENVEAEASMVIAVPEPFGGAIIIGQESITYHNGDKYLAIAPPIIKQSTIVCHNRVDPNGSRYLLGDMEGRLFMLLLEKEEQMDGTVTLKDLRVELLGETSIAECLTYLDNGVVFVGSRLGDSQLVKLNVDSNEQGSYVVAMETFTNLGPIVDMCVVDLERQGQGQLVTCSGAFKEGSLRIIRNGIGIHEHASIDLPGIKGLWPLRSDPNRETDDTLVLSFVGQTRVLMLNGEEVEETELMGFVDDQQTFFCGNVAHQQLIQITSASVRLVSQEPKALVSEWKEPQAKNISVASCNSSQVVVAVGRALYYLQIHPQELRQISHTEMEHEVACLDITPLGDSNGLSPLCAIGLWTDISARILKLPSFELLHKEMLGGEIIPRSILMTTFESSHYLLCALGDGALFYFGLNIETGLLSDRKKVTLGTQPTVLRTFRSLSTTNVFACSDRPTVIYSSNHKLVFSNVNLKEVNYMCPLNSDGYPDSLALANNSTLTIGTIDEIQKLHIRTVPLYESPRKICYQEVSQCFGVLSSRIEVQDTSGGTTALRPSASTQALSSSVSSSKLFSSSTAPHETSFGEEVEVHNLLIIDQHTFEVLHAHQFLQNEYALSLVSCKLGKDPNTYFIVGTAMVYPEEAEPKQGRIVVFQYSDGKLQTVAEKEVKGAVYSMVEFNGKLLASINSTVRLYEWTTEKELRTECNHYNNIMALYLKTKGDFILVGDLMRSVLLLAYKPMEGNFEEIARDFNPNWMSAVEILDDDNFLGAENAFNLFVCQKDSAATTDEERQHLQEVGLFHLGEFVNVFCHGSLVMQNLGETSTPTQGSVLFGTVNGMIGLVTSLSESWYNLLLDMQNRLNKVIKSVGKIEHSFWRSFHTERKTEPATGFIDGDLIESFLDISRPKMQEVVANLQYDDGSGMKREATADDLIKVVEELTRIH
T4 sequence (Q13422 whole entry): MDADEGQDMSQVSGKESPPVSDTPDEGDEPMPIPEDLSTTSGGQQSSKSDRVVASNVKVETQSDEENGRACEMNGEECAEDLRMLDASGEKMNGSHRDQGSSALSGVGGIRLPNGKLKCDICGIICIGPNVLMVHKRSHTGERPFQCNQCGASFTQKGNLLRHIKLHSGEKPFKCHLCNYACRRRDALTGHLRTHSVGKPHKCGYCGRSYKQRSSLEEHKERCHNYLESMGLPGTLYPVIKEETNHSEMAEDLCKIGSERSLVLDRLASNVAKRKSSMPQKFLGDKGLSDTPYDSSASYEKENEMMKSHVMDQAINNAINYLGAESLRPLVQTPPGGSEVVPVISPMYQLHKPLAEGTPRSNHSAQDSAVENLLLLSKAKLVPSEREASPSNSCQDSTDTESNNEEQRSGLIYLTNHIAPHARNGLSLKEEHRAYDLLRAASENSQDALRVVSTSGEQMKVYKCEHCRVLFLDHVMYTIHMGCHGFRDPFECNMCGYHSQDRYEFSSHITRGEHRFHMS
T4 sequence (Q96SW2 whole entry): as the sequence (Q96SW2 whole entry) above
T4 sequence (Q16531 whole entry partner): as the sequence (Q16531 whole entry partner) above
T2 sequence (Q9UKS7 whole entry): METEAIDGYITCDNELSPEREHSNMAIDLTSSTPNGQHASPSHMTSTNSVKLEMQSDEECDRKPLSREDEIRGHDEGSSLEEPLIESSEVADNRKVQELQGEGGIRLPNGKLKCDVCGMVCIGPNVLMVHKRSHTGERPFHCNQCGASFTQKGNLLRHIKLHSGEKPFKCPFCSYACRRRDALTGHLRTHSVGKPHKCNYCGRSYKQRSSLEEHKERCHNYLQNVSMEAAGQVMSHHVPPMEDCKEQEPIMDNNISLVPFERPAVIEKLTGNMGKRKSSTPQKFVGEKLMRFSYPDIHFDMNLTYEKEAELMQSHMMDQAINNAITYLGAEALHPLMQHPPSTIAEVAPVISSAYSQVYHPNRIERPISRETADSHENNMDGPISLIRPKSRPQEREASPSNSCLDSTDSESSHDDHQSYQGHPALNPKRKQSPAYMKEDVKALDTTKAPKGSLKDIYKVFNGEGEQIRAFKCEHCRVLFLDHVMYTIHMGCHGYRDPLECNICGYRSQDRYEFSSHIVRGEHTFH
T2 sequence (Q96SW2 whole entry): as the sequence (Q96SW2 whole entry) above
T2 sequence (Q16531 whole entry partner): as the sequence (Q16531 whole entry partner) above
T3 sequence (P48729 whole entry): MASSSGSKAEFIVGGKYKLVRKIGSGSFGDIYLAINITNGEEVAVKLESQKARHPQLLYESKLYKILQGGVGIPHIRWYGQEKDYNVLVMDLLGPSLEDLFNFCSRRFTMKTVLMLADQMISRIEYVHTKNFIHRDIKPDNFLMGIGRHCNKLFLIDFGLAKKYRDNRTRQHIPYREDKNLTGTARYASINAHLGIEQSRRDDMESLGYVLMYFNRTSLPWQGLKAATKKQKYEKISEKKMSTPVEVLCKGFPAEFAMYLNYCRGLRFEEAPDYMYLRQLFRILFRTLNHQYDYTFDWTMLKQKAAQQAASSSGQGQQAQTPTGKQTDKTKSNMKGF
T3 sequence (Q96SW2 whole entry): as the sequence (Q96SW2 whole entry) above
T3 sequence (Q16531 whole entry partner): as the sequence (Q16531 whole entry partner) above
T1 sequence (Q96SW2 whole entry): as the sequence (Q96SW2 whole entry) above
T5 sequence (P30291 whole entry): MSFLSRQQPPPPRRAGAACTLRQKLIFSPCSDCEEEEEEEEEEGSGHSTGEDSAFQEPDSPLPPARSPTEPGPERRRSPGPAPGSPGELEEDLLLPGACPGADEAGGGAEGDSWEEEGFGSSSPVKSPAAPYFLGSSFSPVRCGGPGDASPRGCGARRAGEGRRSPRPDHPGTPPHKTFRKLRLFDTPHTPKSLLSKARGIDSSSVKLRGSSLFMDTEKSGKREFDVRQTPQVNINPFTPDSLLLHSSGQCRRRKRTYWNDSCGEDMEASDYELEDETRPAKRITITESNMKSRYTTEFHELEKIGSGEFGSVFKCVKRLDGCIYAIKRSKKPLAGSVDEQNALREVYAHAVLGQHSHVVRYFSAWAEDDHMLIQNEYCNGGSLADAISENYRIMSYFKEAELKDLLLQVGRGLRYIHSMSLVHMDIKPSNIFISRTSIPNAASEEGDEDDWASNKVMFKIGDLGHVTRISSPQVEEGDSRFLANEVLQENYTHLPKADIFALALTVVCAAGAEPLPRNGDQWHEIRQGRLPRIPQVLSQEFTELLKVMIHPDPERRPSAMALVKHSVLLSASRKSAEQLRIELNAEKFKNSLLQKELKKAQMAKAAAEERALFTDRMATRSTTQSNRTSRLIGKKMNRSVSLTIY
T5 sequence (Q96SW2 whole entry): as the sequence (Q96SW2 whole entry) above
T5 sequence (Q16531 whole entry partner): as the sequence (Q16531 whole entry partner) above

## O=C1CCC(N2Cc3c(CN4CC=C(c5ncnc6sc7c(c56)CCCC7)CC4)cccc3C2=S)C(=O)N1 (stereo not drawn) [GT-08962, 3-(4-((4-(5,6,7,8-tetrahydrobenzo[4,5]thieno[2,3-d]pyrimidin-4-yl)-3,6-dihydropyridin-1(2H)-yl)methyl)-1-thioxoisoindolin-2-yl)piperidine-2,6-dione]
[1]
  inhibition at 0.5 µM: 40 to 53%
  inhibition at 2 µM: 80 to 100%
[2]; [9]
  IKZF2 substrate protein remaining %: B (80%< substrate protein remaining %≤ 100%)
[3]; [9]
  CK1α substrate protein remaining %: B (80%< substrate protein remaining %≤ 100%)
[4]; [9]
  IKZF 1 substrate protein remaining %: B (80%< substrate protein remaining %≤ 100%)
[5]; [9]
  Wee1 substrate protein remaining %: A (0% ≤ substrate protein remaining % ≤ 80%)
[6]; [9]
  IKZF3 substrate protein remaining %: B (80%< substrate protein remaining %≤ 100%)
[7]
  inhibition at 0.01 µM: 30 to 40%
  inhibition at 0.5 µM: 40 to 50%
[8]; [9]
  GSPT1 substrate protein remaining %: A (0% ≤ substrate protein remaining % ≤ 80%)

## O=C1CCC(N2Cc3cc(CN4C[C@H]5C[C@@H]4CN5c4cccc(Cl)c4Cl)ccc3C2=S)C(=O)N1 (stereo partly drawn) [GT-08477, 3-(5-(((1R,4R)-5-(2,3-dichlorophenyl)-2,5-diazabicyclo[2.2.1]heptan-2-yl)methyl)-1-thioxoisoindolin-2-yl)piperidine-2,6-dione]
[1]
  inhibition at 0.5 µM: 53 to 60%
  inhibition at 2 µM: 80 to 100%
[2]; [10]
  IKZF2 substrate protein remaining %: B (80%< substrate protein remaining %≤ 100%)
[3]; [10]
  CK1α substrate protein remaining %: B (80%< substrate protein remaining %≤ 100%)
[4]; [10]
  IKZF 1 substrate protein remaining %: B (80%< substrate protein remaining %≤ 100%)
[5]; [10]
  Wee1 substrate protein remaining %: B (80%< substrate protein remaining %≤ 100%)
[6]; [10]
  IKZF3 substrate protein remaining %: A (0% ≤ substrate protein remaining % ≤ 80%)
[7]
  inhibition at 0.5 µM: 40 to 50%
[7]; MM.1S, 10 nM, 96 hours
  Inhibition Rate at 10 nM (%): la5
[8]; [10]
  GSPT1 substrate protein remaining %: A (0% ≤ substrate protein remaining % ≤ 80%)

## Cc1cscc1C1CCN(Cc2ccc3c(c2)CN(C2CCC(=O)NC2=O)C3=S)CC1 (stereo not drawn) [GT-05146, 3-(5-((4-(4-methylthiophen-3-yl)piperidin-1-yl)methyl)-1-thioxoisoindolin-2-yl)piperidine-2,6-dione]
[1]
  IC50: 0.1 to 0.5 µM
[2]; [10]
  IKZF2 substrate protein remaining %: B (80%< substrate protein remaining %≤ 100%)
[3]; [10]
  CK1α substrate protein remaining %: B (80%< substrate protein remaining %≤ 100%)
[4]; [10]
  IKZF 1 substrate protein remaining %: A (0% ≤ substrate protein remaining % ≤ 80%)
[5]; [10]
  Wee1 substrate protein remaining %: A (0% ≤ substrate protein remaining % ≤ 80%)
[6]; [10]
  IKZF3 substrate protein remaining %: B (80%< substrate protein remaining %≤ 100%)
[7]
  IC50: 100 to 500 nM
[8]; [10]
  GSPT1 substrate protein remaining %: A (0% ≤ substrate protein remaining % ≤ 80%)

## O=C1CCC(N2Cc3c(CN4CC=C(c5ccnc(F)c5F)CC4)cccc3C2=S)C(=O)N1 (stereo not drawn) [GT-08464, 3-(4-((2',3'-difluoro-3,6-dihydro-[4,4'-bipyridin]-1(2H)-yl)methyl)-1-thioxoisoindolin-2-yl)piperidine-2,6-dione]
[1]
  inhibition at 0.5 µM: 60 to 80%
  inhibition at 2 µM: 60 to 80%
[2]; [10]
  IKZF2 substrate protein remaining %: B (80%< substrate protein remaining %≤ 100%)
[3]; [10]
  CK1α substrate protein remaining %: B (80%< substrate protein remaining %≤ 100%)
[4]; [10]
  IKZF 1 substrate protein remaining %: B (80%< substrate protein remaining %≤ 100%)
[5]; [10]
  Wee1 substrate protein remaining %: A (0% ≤ substrate protein remaining % ≤ 80%)
[6]; [10]
  IKZF3 substrate protein remaining %: B (80%< substrate protein remaining %≤ 100%)
[7]
  inhibition at 0.01 µM: 50 to 60%
[7]; MM.1S, 96 hours
  Inhibition Rate at 500 nM (%): la5
[8]; [10]
  GSPT1 substrate protein remaining %: A (0% ≤ substrate protein remaining % ≤ 80%)

## O=C1CCC(N2Cc3cc(CN4CCN(c5ccccc5Cl)CC4)ccc3C2=S)C(=O)N1 (stereo not drawn) [GT-08241, 3-(5-((4-(2-chlorophenyl)piperazin-1-yl)methyl)-1-thioxoisoindolin-2-yl)piperidine-2,6-dione]
[1]
  inhibition at 0.5 µM: 40 to 53%
  inhibition at 2 µM: 80 to 100%
[2]; [10]
  IKZF2 substrate protein remaining %: B (80%< substrate protein remaining %≤ 100%)
[3]; [10]
  CK1α substrate protein remaining %: B (80%< substrate protein remaining %≤ 100%)
[4]; [10]
  IKZF 1 substrate protein remaining %: B (80%< substrate protein remaining %≤ 100%)
[5]; [10]
  Wee1 substrate protein remaining %: B (80%< substrate protein remaining %≤ 100%)
[6]; [10]
  IKZF3 substrate protein remaining %: B (80%< substrate protein remaining %≤ 100%)
[7]
  inhibition at 0.01 µM: 20 to 30%
  inhibition at 0.5 µM: 70 to 80%
[8]; [10]
  GSPT1 substrate protein remaining %: A (0% ≤ substrate protein remaining % ≤ 80%)

## O=C1CCC(N2Cc3c(CN4CCN(C(c5ccccc5)c5cccnc5)CC4)cccc3C2=S)C(=O)N1 (stereo not drawn) [GT-08193, 3-(4-((4-(phenyl(pyridin-3-yl)methyl)piperazin-1-yl)methyl)-1-thioxoisoindolin-2-yl)piperidine-2,6-dione]
[1]
  inhibition at 0.5 µM: 30 to 40%
  inhibition at 2 µM: 53 to 60%
[2]; [10]
  IKZF2 substrate protein remaining %: A (0% ≤ substrate protein remaining % ≤ 80%)
[3]; [10]
  CK1α substrate protein remaining %: B (80%< substrate protein remaining %≤ 100%)
[4]; [10]
  IKZF 1 substrate protein remaining %: B (80%< substrate protein remaining %≤ 100%)
[5]; [10]
  Wee1 substrate protein remaining %: A (0% ≤ substrate protein remaining % ≤ 80%)
[6]; [10]
  IKZF3 substrate protein remaining %: B (80%< substrate protein remaining %≤ 100%)
[7]
  inhibition at 0.01 µM: 30 to 40%
  inhibition at 0.5 µM: 40 to 50%
[8]; [10]
  GSPT1 substrate protein remaining %: A (0% ≤ substrate protein remaining % ≤ 80%)

## O=C1CCC(N2Cc3cc(CN4CC5CCC4CN5c4cccc(Cl)c4Cl)ccc3C2=S)C(=O)N1 (stereo not drawn) [GT-08478, 3-(5-((5-(2,3-dichlorophenyl)-2,5-diazabicyclo[2.2.2]octan-2-yl)methyl)-1-thioxoisoindolin-2-yl)piperidine-2,6-dione]
[1]
  inhibition at 0.5 µM: 40 to 53%
  inhibition at 2 µM: 80 to 100%
[2]; [10]
  IKZF2 substrate protein remaining %: B (80%< substrate protein remaining %≤ 100%)
[3]; [10]
  CK1α substrate protein remaining %: B (80%< substrate protein remaining %≤ 100%)
[4]; [10]
  IKZF 1 substrate protein remaining %: B (80%< substrate protein remaining %≤ 100%)
[5]; [10]
  Wee1 substrate protein remaining %: B (80%< substrate protein remaining %≤ 100%)
[6]; [10]
  IKZF3 substrate protein remaining %: B (80%< substrate protein remaining %≤ 100%)
[7]
  inhibition at 0.01 µM: 40 to 50%
  inhibition at 0.5 µM: 50 to 60%
[8]; [10]
  GSPT1 substrate protein remaining %: A (0% ≤ substrate protein remaining % ≤ 80%)

## O=C1CCC(N2Cc3cc(CN4CCC(c5cccc(C(F)(F)F)c5)CC4)ccc3C2=S)C(=O)N1 (stereo not drawn) [GT-08623, 3-(1-thioxo-5-((4-(3-(trifluoromethyl)phenyl)piperidin-1-yl)methyl)isoindolin-2-yl)piperidine-2,6-dione]
[1]
  inhibition at 0.5 µM: 40 to 53%
  inhibition at 2 µM: 80 to 100%
[2]; [10]
  IKZF2 substrate protein remaining %: A (0% ≤ substrate protein remaining % ≤ 80%)
[3]; [10]
  CK1α substrate protein remaining %: B (80%< substrate protein remaining %≤ 100%)
[4]; [10]
  IKZF 1 substrate protein remaining %: B (80%< substrate protein remaining %≤ 100%)
[5]; [10]
  Wee1 substrate protein remaining %: B (80%< substrate protein remaining %≤ 100%)
[6]; [10]
  IKZF3 substrate protein remaining %: B (80%< substrate protein remaining %≤ 100%)
[7]
  inhibition at 0.01 µM: 30 to 40%
  inhibition at 0.5 µM: 40 to 50%
[8]; [10]
  GSPT1 substrate protein remaining %: B (80%< substrate protein remaining %≤ 100%)

## O=C1CCC(N2Cc3cc(CN4CCC(N5CCc6cc(F)ccc65)CC4)ccc3C2=S)C(=O)N1 (stereo not drawn) [GT-05244, 3-(5-((4-(5-fluoroindolin-1-yl)piperidin-1-yl)methyl)-1-thioxoisoindolin-2-yl)piperidine-2,6-dione]
[1]
  IC50: 0.1 to 0.5 µM
[2]; [10]
  IKZF2 substrate protein remaining %: A (0% ≤ substrate protein remaining % ≤ 80%)
[3]; [10]
  CK1α substrate protein remaining %: B (80%< substrate protein remaining %≤ 100%)
[4]; [10]
  IKZF 1 substrate protein remaining %: B (80%< substrate protein remaining %≤ 100%)
[5]; [10]
  Wee1 substrate protein remaining %: B (80%< substrate protein remaining %≤ 100%)
[6]; [10]
  IKZF3 substrate protein remaining %: B (80%< substrate protein remaining %≤ 100%)
[7]
  IC50: 100 to 500 nM
[8]; [10]
  GSPT1 substrate protein remaining %: A (0% ≤ substrate protein remaining % ≤ 80%)

## O=C1CCC(N2Cc3c(CN4CC=C(c5ncccc5F)CC4)cccc3C2=S)C(=O)N1 (stereo not drawn) [GT-08463, 3-(4-((3-fluoro-3',6'-dihydro-[2,4'-bipyridin]-1'(2'H)-yl)methyl)-1-thioxoisoindolin-2-yl)piperidine-2,6-dione]
[1]
  inhibition at 0.5 µM: 53 to 60%
  inhibition at 2 µM: 60 to 80%
[2]; [10]
  IKZF2 substrate protein remaining %: B (80%< substrate protein remaining %≤ 100%)
[3]; [10]
  CK1α substrate protein remaining %: B (80%< substrate protein remaining %≤ 100%)
[4]; [10]
  IKZF 1 substrate protein remaining %: B (80%< substrate protein remaining %≤ 100%)
[5]; [10]
  Wee1 substrate protein remaining %: A (0% ≤ substrate protein remaining % ≤ 80%)
[6]; [10]
  IKZF3 substrate protein remaining %: B (80%< substrate protein remaining %≤ 100%)
[7]
  inhibition at 0.01 µM: 40 to 50%
[7]; MM.1S, 96 hours
  Inhibition Rate at 500 nM (%): la5
[8]; [10]
  GSPT1 substrate protein remaining %: A (0% ≤ substrate protein remaining % ≤ 80%)
